Each structure is given as a SMILES string. Positions of bridges follow the written chain, without caps; N, C: chain ends. Non-standard residues stand in square brackets, D forms with d. Residues, ends and D or L forms follow the SMILES beside them. Trp(1-Me) = Cn1cc(C[C@H](N)C(=O)O)c2ccccc21; 1Nal = N[C@@H](Cc1cccc2ccccc12)C(=O)O Where only a bound is given, the exact number is not on record here.

The IC50 is the concentration that gives 50% inhibition.

Common to all, as to assay: cell-based
In one test the target is hNav1.7 (Homo sapiens, UniProt Q15858). Particulars: Nav1.7 Use IC50.
The target of a further test is hNav1.3 (Homo sapiens, UniProt Q9NY46). The class given is cell-based. The conditions noted are these: Nav1.3 Use IC50.
Chain of hNav1.3 (Q9NY46 whole entry, looked up): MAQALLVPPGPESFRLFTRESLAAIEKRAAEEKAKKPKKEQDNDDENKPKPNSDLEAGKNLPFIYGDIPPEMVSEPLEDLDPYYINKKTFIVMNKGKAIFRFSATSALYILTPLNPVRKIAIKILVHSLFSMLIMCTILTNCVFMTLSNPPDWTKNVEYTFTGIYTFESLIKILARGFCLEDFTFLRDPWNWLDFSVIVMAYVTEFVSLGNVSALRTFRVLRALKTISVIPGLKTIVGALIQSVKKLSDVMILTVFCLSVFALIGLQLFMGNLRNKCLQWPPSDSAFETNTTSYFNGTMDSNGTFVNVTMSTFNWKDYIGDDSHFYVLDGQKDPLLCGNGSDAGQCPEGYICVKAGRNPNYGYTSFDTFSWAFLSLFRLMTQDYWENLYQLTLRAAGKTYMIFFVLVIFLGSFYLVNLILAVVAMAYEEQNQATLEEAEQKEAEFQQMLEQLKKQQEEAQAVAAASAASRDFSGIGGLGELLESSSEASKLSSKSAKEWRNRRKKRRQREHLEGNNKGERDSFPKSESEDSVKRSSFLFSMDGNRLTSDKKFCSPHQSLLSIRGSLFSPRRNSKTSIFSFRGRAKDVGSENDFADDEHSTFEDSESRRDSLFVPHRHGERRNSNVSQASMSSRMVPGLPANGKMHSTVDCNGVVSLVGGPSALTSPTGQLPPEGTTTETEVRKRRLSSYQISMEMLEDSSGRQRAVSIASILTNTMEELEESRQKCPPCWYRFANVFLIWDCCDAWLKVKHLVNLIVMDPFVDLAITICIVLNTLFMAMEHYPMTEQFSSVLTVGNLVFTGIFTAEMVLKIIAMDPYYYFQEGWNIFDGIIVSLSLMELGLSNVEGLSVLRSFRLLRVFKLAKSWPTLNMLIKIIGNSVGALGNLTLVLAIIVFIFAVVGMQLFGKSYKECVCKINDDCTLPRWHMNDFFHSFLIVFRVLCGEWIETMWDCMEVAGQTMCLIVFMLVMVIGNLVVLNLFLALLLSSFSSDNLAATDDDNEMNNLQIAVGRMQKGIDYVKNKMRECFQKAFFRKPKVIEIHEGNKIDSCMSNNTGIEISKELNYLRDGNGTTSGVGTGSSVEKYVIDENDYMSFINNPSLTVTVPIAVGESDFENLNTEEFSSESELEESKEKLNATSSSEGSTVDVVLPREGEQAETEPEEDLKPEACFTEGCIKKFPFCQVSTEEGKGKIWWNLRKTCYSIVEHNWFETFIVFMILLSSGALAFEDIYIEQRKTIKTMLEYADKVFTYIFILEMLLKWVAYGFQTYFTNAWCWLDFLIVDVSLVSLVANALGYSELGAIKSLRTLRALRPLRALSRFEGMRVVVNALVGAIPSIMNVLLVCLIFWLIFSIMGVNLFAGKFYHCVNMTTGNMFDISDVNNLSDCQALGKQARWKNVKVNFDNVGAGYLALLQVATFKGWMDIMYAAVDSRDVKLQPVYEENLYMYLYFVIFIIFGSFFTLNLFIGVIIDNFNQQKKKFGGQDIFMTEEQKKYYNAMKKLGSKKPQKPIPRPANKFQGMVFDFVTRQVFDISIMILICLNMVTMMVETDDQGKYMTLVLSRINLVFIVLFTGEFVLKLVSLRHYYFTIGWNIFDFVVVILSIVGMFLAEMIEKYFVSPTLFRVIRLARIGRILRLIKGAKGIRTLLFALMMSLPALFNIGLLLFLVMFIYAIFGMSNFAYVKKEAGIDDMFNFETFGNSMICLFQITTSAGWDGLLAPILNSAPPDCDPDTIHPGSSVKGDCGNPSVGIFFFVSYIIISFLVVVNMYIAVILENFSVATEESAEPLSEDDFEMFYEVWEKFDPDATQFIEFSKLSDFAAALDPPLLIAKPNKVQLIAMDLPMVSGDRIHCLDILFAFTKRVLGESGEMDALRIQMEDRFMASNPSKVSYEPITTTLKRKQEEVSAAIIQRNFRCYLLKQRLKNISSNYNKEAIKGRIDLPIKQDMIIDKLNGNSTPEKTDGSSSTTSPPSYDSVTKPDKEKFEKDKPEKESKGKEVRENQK
The next test has as its target hNav1.5 (Homo sapiens, UniProt Q14524).

Chain of hNav1.5 (Q14524 whole entry, looked up): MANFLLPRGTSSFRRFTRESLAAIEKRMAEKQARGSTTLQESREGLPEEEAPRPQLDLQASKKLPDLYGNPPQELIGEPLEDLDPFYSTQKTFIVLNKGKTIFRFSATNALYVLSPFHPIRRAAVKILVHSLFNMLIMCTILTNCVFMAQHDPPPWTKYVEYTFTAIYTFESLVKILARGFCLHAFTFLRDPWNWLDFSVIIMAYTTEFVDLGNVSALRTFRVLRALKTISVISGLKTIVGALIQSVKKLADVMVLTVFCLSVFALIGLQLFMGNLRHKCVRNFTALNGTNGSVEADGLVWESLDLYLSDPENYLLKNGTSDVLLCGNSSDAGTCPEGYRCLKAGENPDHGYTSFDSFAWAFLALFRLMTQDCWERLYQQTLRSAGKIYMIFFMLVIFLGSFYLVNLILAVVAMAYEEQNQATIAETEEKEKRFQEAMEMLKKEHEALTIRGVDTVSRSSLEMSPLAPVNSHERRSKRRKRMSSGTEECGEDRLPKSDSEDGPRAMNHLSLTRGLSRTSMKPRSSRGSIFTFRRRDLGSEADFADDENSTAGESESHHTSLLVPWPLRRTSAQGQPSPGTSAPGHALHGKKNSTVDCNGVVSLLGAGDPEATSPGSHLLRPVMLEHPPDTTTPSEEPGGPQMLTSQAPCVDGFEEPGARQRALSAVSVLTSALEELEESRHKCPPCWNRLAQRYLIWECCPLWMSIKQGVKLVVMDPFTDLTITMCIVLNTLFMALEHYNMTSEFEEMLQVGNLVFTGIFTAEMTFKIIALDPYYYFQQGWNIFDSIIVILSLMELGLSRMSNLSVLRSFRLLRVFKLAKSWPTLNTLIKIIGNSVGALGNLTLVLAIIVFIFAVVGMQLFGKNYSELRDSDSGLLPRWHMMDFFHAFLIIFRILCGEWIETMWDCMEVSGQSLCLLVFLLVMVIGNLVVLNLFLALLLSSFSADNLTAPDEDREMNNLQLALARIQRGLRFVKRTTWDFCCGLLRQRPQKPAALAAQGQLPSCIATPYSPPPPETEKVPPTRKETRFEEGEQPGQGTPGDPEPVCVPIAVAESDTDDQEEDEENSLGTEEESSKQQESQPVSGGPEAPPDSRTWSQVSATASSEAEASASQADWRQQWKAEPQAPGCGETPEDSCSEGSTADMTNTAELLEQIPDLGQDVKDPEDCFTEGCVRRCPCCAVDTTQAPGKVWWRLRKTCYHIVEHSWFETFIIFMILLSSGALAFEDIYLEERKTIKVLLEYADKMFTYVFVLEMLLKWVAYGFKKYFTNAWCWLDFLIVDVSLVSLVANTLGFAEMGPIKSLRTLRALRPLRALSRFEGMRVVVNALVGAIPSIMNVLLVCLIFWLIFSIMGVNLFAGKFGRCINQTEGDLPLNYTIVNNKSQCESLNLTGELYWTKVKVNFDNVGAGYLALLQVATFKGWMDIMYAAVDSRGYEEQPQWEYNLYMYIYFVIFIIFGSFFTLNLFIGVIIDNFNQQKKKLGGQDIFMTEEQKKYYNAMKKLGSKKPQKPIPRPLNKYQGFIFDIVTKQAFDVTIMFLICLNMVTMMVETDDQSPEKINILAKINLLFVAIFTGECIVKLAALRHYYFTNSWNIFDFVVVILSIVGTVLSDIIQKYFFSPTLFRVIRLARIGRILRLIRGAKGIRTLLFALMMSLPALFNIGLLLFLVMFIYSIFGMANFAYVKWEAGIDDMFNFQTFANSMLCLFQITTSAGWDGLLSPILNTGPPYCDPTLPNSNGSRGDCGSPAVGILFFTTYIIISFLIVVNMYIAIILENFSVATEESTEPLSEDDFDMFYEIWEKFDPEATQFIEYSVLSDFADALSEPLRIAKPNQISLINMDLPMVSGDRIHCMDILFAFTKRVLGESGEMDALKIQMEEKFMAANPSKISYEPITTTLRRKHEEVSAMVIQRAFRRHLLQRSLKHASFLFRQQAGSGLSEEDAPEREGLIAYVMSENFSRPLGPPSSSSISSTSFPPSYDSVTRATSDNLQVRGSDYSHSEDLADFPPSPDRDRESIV

As to `CC[C@H](C)[C@@H]1NC(=O)[C@@H]2CSSC[C@@H]3NC(=O)[C@H](C(C)C)NC(=O)[C@H](CC(C)C)NC(=O)[C@H](CC(N)=O)NC(=O)[C@@H]4CCCN4C(=O)[C@H](CCCNC(=N)N)NC(=O)[C@H](CSSC[C@H](NC(=O)[C@@H](N)CC(=O)O)C(=O)N[C@@H](CC(C)C)C(=O)NCC(=O)N[C@@H](Cc4ccccc4)C(=O)N[C@@H](CCSC)C(=O)N[C@@H](CCCNC(=N)N)C(=O)N[C@@H](CCCCN)C(=O)N2)NC(=O)[C@H](CSSC[C@@H](C(=O)N[C@@H](CCCCN)C(=O)N[C@@H](Cc2ccc(O)cc2)C(=O)N[C@H](C(=O)N[C@@H](Cc2ccccc2)C(=O)N[C@@H](Cc2c[nH]c4ccccc24)C(N)=O)C(C)C)NC(=O)[C@H](Cc2c[nH]c4ccccc24)NC(=O)[C@H](CCCCN)NC(=O)[C@H](Cc2c[nH]cn2)NC(=O)[C@H]([C@@H](C)O)NC(=O)[C@H](CCCNC(=N)N)NC(=O)[C@H](CO)NC3=O)NC(=O)[C@H](CCCCN)NC(=O)[C@H](CC(=O)O)NC(=O)[C@H](CC(N)=O)NC(=O)[C@H](CC(=O)O)NC(=O)[C@@H]2CCCN2C1=O` [GpTx-1(1-34)-Trp], the IC50 against hNav1.7 was determined as 9 nM; at hNav1.3, 15 nM; on hNav1.5, 2660 nM.
With `CC[C@H](C)[C@@H]1NC(=O)[C@@H]2CSSC[C@@H]3NC(=O)[C@H](C(C)C)NC(=O)[C@H](CC(C)C)NC(=O)[C@H](CC(N)=O)NC(=O)[C@@H]4CCCN4C(=O)[C@H](CCCNC(=N)N)NC(=O)[C@H](CSSC[C@H](NC(=O)[C@@H](N)CC(=O)O)C(=O)N[C@@H](CC(C)C)C(=O)NCC(=O)N[C@@H](Cc4ccccc4)C(=O)N[C@@H](CCSC)C(=O)N[C@@H](CCCNC(=N)N)C(=O)N[C@@H](CCCCN)C(=O)N2)NC(=O)[C@H](CSSC[C@@H](C(=O)N[C@@H](CCCCN)C(=O)N[C@@H](Cc2cccc4ccccc24)C(=O)N[C@H](C(=O)N[C@@H](Cc2ccccc2)C(N)=O)C(C)C)NC(=O)[C@H](Cc2c[nH]c4ccccc24)NC(=O)[C@H](CCCCN)NC(=O)[C@H](Cc2cnc[nH]2)NC(=O)[C@H]([C@@H](C)O)NC(=O)[C@H](CCCNC(=N)N)NC(=O)[C@H](CO)NC3=O)NC(=O)[C@H](CCCCN)NC(=O)[C@H](CC(=O)O)NC(=O)[C@H](CC(N)=O)NC(=O)[C@H](CC(=O)O)NC(=O)[C@@H]2CCCN2C1=O` [[1-Nal32]GpTx-1(1-34)] (H-DCLGFMRKCIPDNDKCCRPNLVCSRTHKWCK[1Nal]VF-NH2; disulfide 2-17, 9-23, 16-30), the IC50 against hNav1.3 turned out to be 12 nM; against hNav1.5, 988 nM.
Turning to `CC[C@H](C)[C@@H]1NC(=O)[C@@H]2CSSC[C@@H]3NC(=O)[C@H](C(C)C)NC(=O)[C@H](CC(C)C)NC(=O)[C@H](CC(N)=O)NC(=O)[C@@H]4CCCN4C(=O)[C@H](CCCNC(=N)N)NC(=O)[C@H](CSSC[C@H](NC(=O)[C@@H](N)CC(=O)O)C(=O)N[C@@H](CC(C)C)C(=O)NCC(=O)N[C@@H](Cc4ccccc4)C(=O)N[C@@H](CCSC)C(=O)N[C@@H](CCCNC(=N)N)C(=O)N[C@@H](CCCCN)C(=O)N2)NC(=O)[C@H](CSSC[C@@H](C(=O)N[C@@H](CCCCN)C(=O)N[C@@H](Cc2ccc(O)cc2)C(=O)N[C@H](C(=O)N[C@@H](Cc2cccc4ccccc24)C(N)=O)C(C)C)NC(=O)[C@H](Cc2c[nH]c4ccccc24)NC(=O)[C@H](CCCCN)NC(=O)[C@H](Cc2cnc[nH]2)NC(=O)[C@H]([C@@H](C)O)NC(=O)[C@H](CCCNC(=N)N)NC(=O)[C@H](CO)NC3=O)NC(=O)[C@H](CCCCN)NC(=O)[C@H](CC(=O)O)NC(=O)[C@H](CC(N)=O)NC(=O)[C@H](CC(=O)O)NC(=O)[C@@H]2CCCN2C1=O` [[1-Nal34]GpTx-1(1-34)] (H-DCLGFMRKCIPDNDKCCRPNLVCSRTHKWCKYV[1Nal]-NH2; disulfide 2-17, 9-23, 16-30), the IC50 against hNav1.7 was found to be 4 nM; against hNav1.3, 7 nM; at hNav1.5, 1860 nM.
For `CC[C@H](C)[C@@H]1NC(=O)[C@@H]2CSSC[C@@H]3NC(=O)[C@H](C(C)C)NC(=O)[C@H](CC(C)C)NC(=O)[C@H](CC(N)=O)NC(=O)[C@@H]4CCCN4C(=O)[C@H](CCCNC(=N)N)NC(=O)[C@H](CSSC[C@H](NC(=O)[C@@H](N)CC(=O)O)C(=O)N[C@@H](CC(C)C)C(=O)NCC(=O)N[C@@H](Cc4ccccc4)C(=O)N[C@@H](CCSC)C(=O)N[C@@H](CCCNC(=N)N)C(=O)N[C@@H](CCCCN)C(=O)N2)NC(=O)[C@H](CSSC[C@@H](C(=O)N[C@@H](CCCCN)C(=O)N[C@@H](Cc2cn(C)c4ccccc24)C(=O)N[C@H](C(=O)N[C@@H](Cc2ccccc2)C(N)=O)C(C)C)NC(=O)[C@H](Cc2c[nH]c4ccccc24)NC(=O)[C@H](CCCCN)NC(=O)[C@H](Cc2c[nH]cn2)NC(=O)[C@H]([C@@H](C)O)NC(=O)[C@H](CCCNC(=N)N)NC(=O)[C@H](CO)NC3=O)NC(=O)[C@H](CCCCN)NC(=O)[C@H](CC(=O)O)NC(=O)[C@H](CC(N)=O)NC(=O)[C@H](CC(=O)O)NC(=O)[C@@H]2CCCN2C1=O` [[1′NMeW32]GpTx-1(1-34)] (H-DCLGFMRKCIPDNDKCCRPNLVCSRTHKWCK[Trp(1-Me)]VF-NH2; disulfide 2-17, 9-23, 16-30) the same measures were 6 nM, 18 nM and 6850 nM.
With `CC[C@H](C)[C@@H]1NC(=O)[C@@H]2CSSC[C@@H]3NC(=O)[C@H](C(C)C)NC(=O)[C@H](CC(C)C)NC(=O)[C@H](CC(N)=O)NC(=O)[C@@H]4CCCN4C(=O)[C@H](CCCNC(=N)N)NC(=O)[C@H](CSSC[C@H](NC(=O)[C@@H](N)CC(=O)O)C(=O)N[C@@H](CC(C)C)C(=O)NCC(=O)N[C@@H](Cc4ccccc4)C(=O)N[C@@H](CCSC)C(=O)N[C@@H](CCCNC(=N)N)C(=O)N[C@@H](CCCCN)C(=O)N2)NC(=O)[C@H](CSSC[C@@H](C(=O)N[C@@H](CCCCN)C(=O)N[C@@H](Cc2ccc(O)cc2)C(=O)N[C@@H](Cc2cn(C)c4ccccc24)C(=O)N[C@@H](Cc2ccccc2)C(N)=O)NC(=O)[C@H](Cc2c[nH]c4ccccc24)NC(=O)[C@H](CCCCN)NC(=O)[C@H](Cc2c[nH]cn2)NC(=O)[C@H]([C@@H](C)O)NC(=O)[C@H](CCCNC(=N)N)NC(=O)[C@H](CO)NC3=O)NC(=O)[C@H](CCCCN)NC(=O)[C@H](CC(=O)O)NC(=O)[C@H](CC(N)=O)NC(=O)[C@H](CC(=O)O)NC(=O)[C@@H]2CCCN2C1=O` [[1′NMeW33]GpTx-1(1-34)] (H-DCLGFMRKCIPDNDKCCRPNLVCSRTHKWCKY[Trp(1-Me)]F-NH2; disulfide 2-17, 9-23, 16-30), the IC50 against hNav1.7 came to 54 nM; at hNav1.3 it was 37 nM; against hNav1.5, 9540 nM.
For the compound `CC[C@H](C)[C@@H]1NC(=O)[C@@H]2CSSC[C@@H]3NC(=O)[C@H](C(C)C)NC(=O)[C@H](CC(C)C)NC(=O)[C@H](CC(N)=O)NC(=O)[C@@H]4CCCN4C(=O)[C@H](CCCNC(=N)N)NC(=O)[C@H](CSSC[C@H](NC(=O)[C@@H](N)CC(=O)O)C(=O)N[C@@H](CC(C)C)C(=O)NCC(=O)N[C@@H](C)C(=O)N[C@@H](Cc4cccc5ccccc45)C(=O)N[C@@H](CCCNC(=N)N)C(=O)N[C@@H](CCCCN)C(=O)N2)NC(=O)[C@H](CSSC[C@@H](C(=O)N[C@@H](CCCCN)C(=O)N[C@@H](Cc2ccc(O)cc2)C(=O)N[C@H](C(=O)N[C@@H](Cc2ccccc2)C(N)=O)C(C)C)NC(=O)[C@H](Cc2c[nH]c4ccccc24)NC(=O)[C@H](CCCCN)NC(=O)[C@H](Cc2cnc[nH]2)NC(=O)[C@H]([C@@H](C)O)NC(=O)[C@H](CCCNC(=N)N)NC(=O)[C@H](CO)NC3=O)NC(=O)[C@H](CCCCN)NC(=O)[C@H](CC(=O)O)NC(=O)[C@H](CC(N)=O)NC(=O)[C@H](CC(=O)O)NC(=O)[C@@H]2CCCN2C1=O` [[Ala5;1-Nal6]GpTx-1(1-34)], the IC50 was found to be 2 nM against hNav1.7, 8 nM against hNav1.3 and 3810 nM at hNav1.5.
Turning to `CC[C@H](C)[C@@H]1NC(=O)[C@@H]2CSSC[C@@H]3NC(=O)[C@H](C(C)C)NC(=O)[C@H](CC(C)C)NC(=O)[C@H](CC(N)=O)NC(=O)[C@@H]4CCCN4C(=O)[C@H](CCCNC(=N)N)NC(=O)[C@H](CSSC[C@H](NC(=O)[C@@H](N)CC(=O)O)C(=O)N[C@@H](CC(C)C)C(=O)NCC(=O)N[C@@H](C)C(=O)N[C@@H](CCSC)C(=O)N[C@@H](CCCNC(=N)N)C(=O)N[C@@H](CCCCN)C(=O)N2)NC(=O)[C@H](CSSC[C@@H](C(=O)N[C@@H](CCCCN)C(=O)N[C@@H](Cc2cccc4ccccc24)C(=O)N[C@H](C(=O)N[C@@H](Cc2ccccc2)C(N)=O)C(C)C)NC(=O)[C@H](Cc2c[nH]c4ccccc24)NC(=O)[C@H](CCCCN)NC(=O)[C@H](Cc2c[nH]cn2)NC(=O)[C@H]([C@@H](C)O)NC(=O)[C@H](CCCNC(=N)N)NC(=O)[C@H](CO)NC3=O)NC(=O)[C@H](CCCCN)NC(=O)[C@H](CC(=O)O)NC(=O)[C@H](CC(N)=O)NC(=O)[C@H](CC(=O)O)NC(=O)[C@@H]2CCCN2C1=O` [[Ala5;1-Nal32]GpTx-1(1-34)] (H-DCLGAMRKCIPDNDKCCRPNLVCSRTHKWCK[1Nal]VF-NH2; disulfide 2-17, 9-23, 16-30), the IC50 is 28 nM at hNav1.7, 122 nM against hNav1.3 and over 10000 nM against hNav1.5.
For `CC[C@H](C)[C@@H]1NC(=O)[C@@H]2CSSC[C@@H]3NC(=O)[C@H](C(C)C)NC(=O)[C@H](CC(C)C)NC(=O)[C@H](CC(N)=O)NC(=O)[C@@H]4CCCN4C(=O)[C@H](CCCNC(=N)N)NC(=O)[C@H](CSSC[C@H](NC(=O)[C@@H](N)CC(=O)O)C(=O)N[C@@H](CC(C)C)C(=O)NCC(=O)N[C@@H](Cc4ccccc4)C(=O)N[C@@H](CCSC)C(=O)N[C@@H](CCCNC(=N)N)C(=O)N[C@@H](CCCCN)C(=O)N2)NC(=O)[C@H](CSSC[C@@H](C(=O)N[C@@H](CCCCN)C(=O)N[C@@H](Cc2ccc(O)cc2)C(=O)N[C@H](C(=O)N[C@@H](Cc2ccccc2)C(N)=O)C(C)C)NC(=O)[C@H](Cc2c[nH]c4ccccc24)NC(=O)[C@H](CCCCN)NC(=O)[C@H](Cc2cnc[nH]2)NC(=O)[C@H](CCCNC(=N)N)NC(=O)[C@H](CCCNC(=N)N)NC(=O)[C@H](CO)NC3=O)NC(=O)[C@H](CCCCN)NC(=O)[C@H](CC(=O)O)NC(=O)[C@H](CC(N)=O)NC(=O)[C@H](CC(=O)O)NC(=O)[C@@H]2CCCN2C1=O` [[Arg26]GpTx-1(1-34)] (H-DCLGFMRKCIPDNDKCCRPNLVCSRRHKWCKYVF-NH2; disulfide 2-17, 9-23, 16-30), the IC50 is 10 nM at hNav1.3 and 573 nM at hNav1.5.
